Test results: ChEMBL document CHEMBL4138256, “Design, Synthesis, and Biological Activity of 1,2,3-Triazolobenzodiazepine BET Bromodomain Inhibitors” (ACS Med Chem Lett, 2017)
pEC50, pIC50: −log10 of the molar value.

Tests used:
[1] = target: T1, Bromodomain-containing protein 4 (Homo sapiens, UniProt O60885)
Description: Inhibition of human His-tagged Brd4 bromodomain 2 expressed in Escherichia coli BL21 (DE3) preincubated for 30 mins followed by addition of biotinylated acetyl-histone H4 peptide and measured after 1 hr by AlphaScreen assay

[2] = target: T1, Bromodomain-containing protein 4; remark: listed apart in the source
Description: Inhibition of human His-tagged Brd4 bromodomain 1 expressed in Escherichia coli BL21 (DE3) preincubated for 30 mins followed by addition of biotinylated acetyl-histone H4 peptide and measured after 1 hr by AlphaScreen assay

[3] = target: Bromodomain-containing protein 3 (Homo sapiens, UniProt Q15059); test: Inhibition of human His-tagged Brd3 bromodomain 1 expressed in Escherichia coli BL21 (DE3) preincubated for 30 mins followed by addition of biotinylated acetyl-histone H4 peptide and measured after 1 hr by AlphaScreen assay
Sequence of Bromodomain-containing protein 3 (Q15059 whole entry): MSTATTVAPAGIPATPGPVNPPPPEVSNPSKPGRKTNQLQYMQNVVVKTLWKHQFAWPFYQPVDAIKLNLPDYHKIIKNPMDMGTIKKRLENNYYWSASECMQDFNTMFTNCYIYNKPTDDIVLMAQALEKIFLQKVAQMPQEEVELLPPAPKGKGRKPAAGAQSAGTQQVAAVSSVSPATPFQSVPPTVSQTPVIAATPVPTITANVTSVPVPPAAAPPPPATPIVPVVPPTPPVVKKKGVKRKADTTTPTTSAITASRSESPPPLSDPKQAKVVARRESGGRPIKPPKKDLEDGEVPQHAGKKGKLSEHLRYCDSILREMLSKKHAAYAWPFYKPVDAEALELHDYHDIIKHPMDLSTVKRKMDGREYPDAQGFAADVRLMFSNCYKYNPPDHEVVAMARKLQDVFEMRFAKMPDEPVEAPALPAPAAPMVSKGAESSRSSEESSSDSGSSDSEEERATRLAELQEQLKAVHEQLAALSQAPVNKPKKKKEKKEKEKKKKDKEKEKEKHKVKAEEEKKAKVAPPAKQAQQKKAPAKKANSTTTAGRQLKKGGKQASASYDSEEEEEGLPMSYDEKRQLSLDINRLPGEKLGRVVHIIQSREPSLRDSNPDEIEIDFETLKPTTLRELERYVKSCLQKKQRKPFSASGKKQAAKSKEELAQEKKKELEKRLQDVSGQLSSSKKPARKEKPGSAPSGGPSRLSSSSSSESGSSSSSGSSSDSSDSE

[4] = target: T2, Bromodomain-containing protein 2 (Homo sapiens, UniProt P25440); test: Inhibition of human His-tagged Brd2 bromodomain 2 expressed in Escherichia coli BL21 (DE3) preincubated for 30 mins followed by addition of biotinylated acetyl-histone H4 peptide and measured after 1 hr by AlphaScreen assay
Target sequence in this assay (P25440 whole entry): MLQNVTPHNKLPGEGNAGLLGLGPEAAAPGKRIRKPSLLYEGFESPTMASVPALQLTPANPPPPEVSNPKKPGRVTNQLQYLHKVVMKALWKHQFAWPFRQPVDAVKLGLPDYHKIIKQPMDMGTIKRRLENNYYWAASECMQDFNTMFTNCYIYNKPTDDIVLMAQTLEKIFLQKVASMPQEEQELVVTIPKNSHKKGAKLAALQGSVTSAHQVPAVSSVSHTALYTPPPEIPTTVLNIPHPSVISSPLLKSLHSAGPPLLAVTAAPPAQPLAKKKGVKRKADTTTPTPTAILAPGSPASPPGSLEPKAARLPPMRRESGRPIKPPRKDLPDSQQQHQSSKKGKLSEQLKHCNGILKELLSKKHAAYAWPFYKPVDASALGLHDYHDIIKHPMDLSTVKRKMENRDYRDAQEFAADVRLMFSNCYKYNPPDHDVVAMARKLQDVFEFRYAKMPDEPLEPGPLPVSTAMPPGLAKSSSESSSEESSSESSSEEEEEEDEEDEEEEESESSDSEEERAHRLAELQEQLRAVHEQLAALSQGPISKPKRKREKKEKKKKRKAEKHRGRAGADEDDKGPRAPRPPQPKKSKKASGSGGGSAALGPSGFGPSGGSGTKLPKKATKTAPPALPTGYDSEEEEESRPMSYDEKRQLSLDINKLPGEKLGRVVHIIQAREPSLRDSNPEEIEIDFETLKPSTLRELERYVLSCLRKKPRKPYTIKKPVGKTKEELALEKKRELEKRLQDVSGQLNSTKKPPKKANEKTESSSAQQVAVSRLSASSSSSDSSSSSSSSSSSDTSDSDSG

[5] = target: T2, Bromodomain-containing protein 2; test: Inhibition of human His-tagged Brd2 bromodomain 1 expressed in Escherichia coli BL21 (DE3) preincubated for 30 mins followed by addition of biotinylated acetyl-histone H4 peptide and measured after 1 hr by AlphaScreen assay
Target sequence in this assay (P25440 whole entry): as above

HEL 92.1.7 = test: Antiproliferative activity against human HEL 92.1.7 cells after 72 hrs by Cell-TiterGlo assay; type: functional, cell-based; conditions: HEL 92.1.7, 72 h
DOHH-2 = test: Antiproliferative activity against human DOHH2 cells after 72 hrs by Cell-TiterGlo assay; type: functional, cell-based; conditions: DOHH-2, 72 h
[6] = Antiproliferative activity against mouse 148I cells after 72 hrs by Cell-TiterGlo assay; type: functional, cell-based
[7] = Antiproliferative activity against human MLL-AF9 cells after 72 hrs by Cell-TiterGlo assay; type: functional, cell-based; conditions: MLL-AF9, 72 h
[8] = target: T2, Bromodomain-containing protein 2
Target sequence in this assay (P25440 whole entry, looked up): as the sequence (P25440 whole entry) above
Description: Binding affinity to His-tagged human Brd2 bromodomain 1 (1 to 473 residues) assessed as association rate constant by suface plasmon resonance assay

[9] = Antiproliferative activity against mouse 494H cells after 72 hrs by Cell-TiterGlo assay; type: functional, cell-based
Raji = test: Antiproliferative activity against human Raji cells after 72 hrs by Cell-TiterGlo assay; type: functional, cell-based
SUD4 = test: Antiproliferative activity against human SU-DHL4 cells after 72 hrs by Cell-TiterGlo assay; type: functional, cell-based; conditions: SU-DHL-4, 72 h
CCRF-CEM = test: Antiproliferative activity against human CCRF-CEM cells after 72 hrs by Cell-TiterGlo assay; type: functional, cell-based
HL-60 = test: Antiproliferative activity against human HL60 cells after 72 hrs by Cell-TiterGlo assay; type: functional, cell-based; conditions: HL-60, 72 h
RPMI-8226 = test: Antiproliferative activity against human RPMI8226 cells after 72 hrs by Cell-TiterGlo assay; type: functional, cell-based; conditions: RPMI-8226, 72 h
K562 = test: Antiproliferative activity against human K562 cells after 72 hrs by Cell-TiterGlo assay; type: functional, cell-based; conditions: K562, 72 h
MV4-11 = test: Antiproliferative activity against human MV4-11 cells after 72 hrs by Cell-TiterGlo assay; type: functional, cell-based; conditions: MV4-11, 72 h
[10] = target: T2, Bromodomain-containing protein 2; remark: listed apart in the source
Target sequence in this assay (P25440 whole entry, looked up): as the sequence (P25440 whole entry) above
Description: Binding affinity to His-tagged human Brd2 bromodomain 2 (1 to 473 residues) assessed as association rate constant by surface plasmon resonance assay

Structure (SMILES)	pIC50 [1]	pIC50 [2]	pIC50 [3]	pIC50 [4]	pIC50 [5]	further results
Cc1ccc(-c2ccc3c(c2)N(c2ccc(Cl)cc2)CCn2nnc(C)c2-3)cn1	8.15	7.80	8.00	–	–	–
Cc1nnn2c1-c1ccc(C(=O)N[C@@H](C)c3ccc(F)cc3)cc1N(c1ccc(Cl)cc1)CC2	–	–	7.64	–	–	–
Cc1nnn2c1-c1ccc(C(=O)NCc3ccccc3)cc1N(c1ccc(Cl)cc1)CC2	7.82	7.46	–	–	–	–
Cc1nnn2c1-c1ccccc1N(Cc1cccc(Br)c1)CC2	7.77	7.54	7.68	7.36	6.89	–
Cc1nnn2c1-c1ccccc1N(c1ccccc1)C(=O)C2	< 5.00	< 5.00	< 5.00	< 5.00	< 5.00	–
Cc1nnn2c1-c1ccc(C(=O)Nc3ccccc3)cc1N(c1ccc(Cl)cc1)CC2	–	–	7.85	–	–	–
Cc1nnn2c1-c1ccc(C#N)cc1N(c1ccc(Cl)cc1)CC2	7.89	7.96	–	–	–	–
Cc1nnn2c1-c1ccc(C(=O)O)cc1N(c1ccc(Cl)cc1)CC2	–	–	7.80	7.30	6.73	–
Cc1nnn2c1-c1ccc(C(=O)NC(c3ccccc3)c3ccccc3)cc1N(c1ccc(Cl)cc1)CC2	–	–	7.41	7.36	6.82	–
Cc1nnn2c1-c1ccc(-c3ccc(N)nc3)cc1N(c1ccc(Cl)cc1)CC2	8.22	7.89	8.05	–	–	pEC50 (HEL 92.1.7): 6.40; pEC50 (DOHH-2): 6.25; pEC50 [6]: 5.89; pEC50 [7]: 7.11; Ka [8]: 2.9 ×10⁵ /M/s; pEC50 [9]: 6.78; pEC50 (Raji): 6.25; pEC50 (SUD4): 6.01; pEC50 (CCRF-CEM): 5.86; pEC50 (HL-60): 6.82; pEC50 (RPMI-8226): 6.20; pEC50 (K562): < 5.00; pEC50 (MV4-11): 6.85; Ka [10]: 2.62 ×10⁵ /M/s
Cc1nnn2c1-c1ccc(C(=O)NS(C)(=O)=O)cc1N(c1ccc(Cl)cc1)CC2	8.15	7.89	–	–	–	–
Cc1nnn2c1-c1ccc(C(=O)N[C@H](C)c3ccccc3)cc1N(c1ccc(Cl)cc1)CC2	–	–	7.89	–	–	–
Cc1nnn2c1-c1ccc(C(O)C(F)(F)F)cc1N(c1ccc(Cl)cc1)CC2 (stereo not drawn)	7.64	7.37	–	–	–	–
Cc1nnn2c1-c1ccc(C(=O)NS(=O)(=O)c3ccccc3)cc1N(c1ccc(Cl)cc1)CC2	8.00	7.68	7.68	7.60	7.27	–
Cc1nnn2c1-c1ccccc1N(c1ccccc1)CC2	7.67 to 7.92	7.40 to 7.55	–	–	–	–
Cc1nnn2c1-c1ccccc1N(c1ccc(Cl)cc1)C[C@H]2C	–	–	–	7.60	7.42	–
Cc1nnn2c1-c1ccc(C(=O)N[C@@H](C)c3ccccc3)cc1N(c1ccc(Cl)cc1)CC2	–	–	7.92	–	–	–
Cc1nnn2c1-c1ccccc1N(c1ccc(Cl)cc1)CC2CCO (stereo not drawn)	7.44	7.28	7.36	7.35	6.47	–
Cc1nnn2c1-c1ccccc1N(c1ccc(Cl)cc1)C[C@@H]2C	–	–	–	7.47	7.28	–
Cc1nnn2c1-c1ccc(-c3nn[nH]n3)cc1N(c1ccc(Cl)cc1)CC2	8.70	8.52	–	–	–	–
Cc1nnn2c1-c1ccc(-c3cc[nH]n3)cc1N(c1ccc(Cl)cc1)CC2	8.15	7.85	8.00	–	–	pEC50 (HEL 92.1.7): 6.14; pEC50 (DOHH-2): 6.55; pEC50 [6]: 6.01; pEC50 [7]: 6.95; pEC50 [9]: 6.71; pEC50 (Raji): 6.11; pEC50 (SUD4): 6.24; pEC50 (CCRF-CEM): 5.65; pEC50 (HL-60): 6.86; pEC50 (RPMI-8226): 6.31; pEC50 (K562): < 5.00; pEC50 (MV4-11): 6.70
Cc1nnn2c1-c1ccc(C(N)=O)cc1N(c1ccc(Cl)cc1)CC2	8.70	8.22	–	–	–	–
Cc1sc2c(c1C)C(c1ccc(Cl)cc1)=NC(CC(=O)OC(C)(C)C)c1nnc(C)n1-2 (stereo not drawn)	–	–	–	–	–	pEC50 (HEL 92.1.7): 6.74; pEC50 (DOHH-2): 6.55; pEC50 [6]: 6.55; pEC50 [7]: 7.19; pEC50 [9]: 6.91; pEC50 (Raji): 6.48; pEC50 (SUD4): 6.18; pEC50 (CCRF-CEM): 5.69; pEC50 (HL-60): 7.29; pEC50 (RPMI-8226): 6.59; pEC50 (K562): < 5.00; pEC50 (MV4-11): 7.41
Cc1nnn2c1-c1ccc(Cn3cccn3)cc1N(c1ccc(Cl)cc1)CC2	7.42	7.35	7.28	–	–	–
